Measurements reported in US11530213B2, “Naphthyridinone derivatives and their use in the treatment of arrhythmia” (NOVARTIS AG, priority 2016, dated 2022).

Target: GIRK1/4 (Homo sapiens (Human), UniProt P48544+P48549)
Assay: GIRK1/4 inhibition, Quattro (IonWorks) population patch clamp, inward potassium current in GIRK 1/4 HEK293 stable cells (test assay No. 1)
Type: cell-based
Conditions: percentage of current inhibition normalized to DMSO-only control
Experimental: The activity of a compound according to the present invention can be assessed by the following in vitro method. • 1. Buffers: • a. External buffer: 10 mM NaCl, 50 mM Na Gluconate, 80 mM K Gluconate, 1.8 mM CaCl2, 1 mM MgCl2, 10 mM HEPES, 10 mM Glucose, pH 7.4; osmolality […]. • b. Internal buffer: 30 mM KCl, 100 mM K Gluconate, 1 mM MgCl2, 10 mM HEPES, 1 mM EGTA, 10 mM NaCl, pH 7.2; osmolality […]. • 2. Compounds: • a. Prepare seven-fold compound dilution series (10 mM to 20 uM) in 100% DMSO, in 384-well polypropylene plates. • b. Propafenone (Sigma Aldrich, catalog number P4670) is used as a positive control and DMSO for neutral control • c. Resuspend 1 ul of compounds in DMSO into 65.7 ul external buffer in 384-well polypropylene plate and load into Plate 1 section of Molecular Devices Quattro • 3. Quattro setup: • a. Load 384-well Population Patch Plate (Molecular Devices #9000-0902) into Quattro • b. Fill Quattro F-soak trough with 20% DMSO and 50% EtOH • c. Fill Quattro buffer trough with external buffer • d. Attach internal buffer flask to Quattro internal buffer tubing • e. Attach PBS (Phosphate Buffered Saline, minus Ca^++ and Mg^++, pH7.4) bottle to F-head & E-head wash on Quattro • 4. Antibiotic: • a. Resuspend 5.6 mg amphotericin B (Sigma Aldrich, catalog number A2411) in 175 ul DMSO • b. Add the resulting solution to 50 ml internal buffer, mix and attach to antibiotic tubing port on Quattro • 5. Cells: • a. Use GIRK 1/4 HEK293 stable cells (obtained from ChanTest, 14656 Neo Parkway, Cleveland, Ohio 44128) grown to […] confluency in the following cell culture medium: DMEM containing 10% (v/v) Fetal Bovine Serum, Penicillin/Streptomycin (at “1×” concentration from a 100× stock), 0.5 mg/ml G418 and 0.1 mg/ml Zeocin. • b. Wash cells with PBS (minus Ca^++ and Mg^++), Detach cells using Detachin (Genlantis, 11011 Torreyana, San Diego, Calif. 92121), and resuspend in external buffer (5 ml final volume at 2.0-2.1×10^6 cells/ml) • c. Load into cell trough of Quattro • 6. Assay Protocol: • Quattro is controlled using IonWorks v2 software to perform the following steps: • a. Add 3.5 ul cells plus 3.5 ul external buffer to wells of Quattro Patch Plate • b. Circulate amphotericin B and internal buffer onto cells • c. Apply the following voltage protocol: Pulse 1: 15 mV for 300 milliseconds (ms), followed by Pulse 2: −120 mV for 400 ms, then Pulse 3: −15 mV for 400 ms, and finally Pulse 4: −120 mV to 40 mV over 500 ms (this is a voltage ramp). • d. Measure magnitude of inward potassium current at time point between 1200-1220 ms from start of Pulse 1 (i.e. during the voltage ramp phase). • e. Add 3.5 ul of diluted compounds (or DMSO) to wells and repeat steps c-d (final compound concentrations are 50 uM to 0.1 uM, for potent compounds 0.5 uM to 0.01 uM and each concentration is tested in quadruplicate—i.e. in 4 separate wells). • f. The difference between current magnitude pre vs. post-compound gives a measure of GIRK1/4 inhibition. • 7. Data analysis:
IC50 values are calculated by plotting the percentage of current inhibition (normalized to the DMSO-only control) as a function of compound concentration using standard data analysis software.

Sequence of GIRK1/4 (P48549 whole entry): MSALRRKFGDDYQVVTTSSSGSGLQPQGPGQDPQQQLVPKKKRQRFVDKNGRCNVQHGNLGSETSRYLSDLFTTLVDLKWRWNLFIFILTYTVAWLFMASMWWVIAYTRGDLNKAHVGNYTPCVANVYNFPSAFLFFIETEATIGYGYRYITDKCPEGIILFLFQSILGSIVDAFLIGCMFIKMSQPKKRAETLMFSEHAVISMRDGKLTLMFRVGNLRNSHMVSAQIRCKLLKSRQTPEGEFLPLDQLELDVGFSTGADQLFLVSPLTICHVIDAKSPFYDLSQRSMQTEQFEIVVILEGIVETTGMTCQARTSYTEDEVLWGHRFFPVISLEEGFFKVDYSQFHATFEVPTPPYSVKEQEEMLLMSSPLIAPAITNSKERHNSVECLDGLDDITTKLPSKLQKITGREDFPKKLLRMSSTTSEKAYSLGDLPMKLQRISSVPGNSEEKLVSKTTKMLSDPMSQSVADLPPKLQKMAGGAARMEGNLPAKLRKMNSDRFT
Sequence of GIRK1/4 (P48544 whole entry): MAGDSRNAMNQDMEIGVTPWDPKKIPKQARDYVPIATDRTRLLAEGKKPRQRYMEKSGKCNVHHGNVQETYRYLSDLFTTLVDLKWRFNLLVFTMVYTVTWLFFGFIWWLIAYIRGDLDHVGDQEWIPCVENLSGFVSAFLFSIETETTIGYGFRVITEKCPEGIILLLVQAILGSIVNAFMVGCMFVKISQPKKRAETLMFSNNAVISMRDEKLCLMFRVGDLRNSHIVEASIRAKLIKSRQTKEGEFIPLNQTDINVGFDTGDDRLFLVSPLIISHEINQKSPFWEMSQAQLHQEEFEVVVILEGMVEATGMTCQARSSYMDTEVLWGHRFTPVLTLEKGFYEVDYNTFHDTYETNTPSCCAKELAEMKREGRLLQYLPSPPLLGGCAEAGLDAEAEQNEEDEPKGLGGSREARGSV

| Structure (SMILES) | IC50 [nM] |
| --- | --- |
| O=c1cc(CO)n(-c2c(Cl)cc(F)cc2Cl)c2c(Cl)cnc(OCC(O)CO)c12 (centres unmarked) [Example 60, 8-Chloro-1-(2,6-dichloro-4-fluorophenyl)-5-(2,3-dihydroxypropoxy)-2-(hydroxymethyl)-1,6-naphthyridin-4(1H)-one] | 261 |
| Cc1cc(=O)c2c(OCCO)ncc(Cl)c2n1-c1c(Cl)cc(C#CCN2CCS(=O)(=O)CC2)cc1Cl [Example 92, 8-Chloro-1-(2,6-dichloro-4-(3-(1,1-dioxidothiomorpholino)prop-1-yn-1-yl)phenyl)-5-(2-hydroxyethoxy)-2-methyl-1,6-naphthyridin-4(1H)-one] | 47 |
| Cc1cc(=O)c2c(NOCCO)ncc(Cl)c2n1-c1c(Cl)cc(C#N)cc1Cl [Example 44, 3,5-dichloro-4-(8-chloro-5-((2-hydroxyethoxy)amino)-2-methyl-4-oxo-1,6-naphthyridin-1(4H)-yl)benzonitrile] | 56 |
| Cc1cc(=O)c2c(NS(=O)(=O)c3cn[nH]c3)cncc2n1-c1c(Cl)cc(C#N)cc1Cl [Example 70, N-(1-(2,6-Dichloro-4-cyanophenyl)-2-methyl-4-oxo-1,4-dihydro-1,7-naphthyridin-5-yl)-1H-pyrazole-4-sulfonamide] | 3050 |
| O=c1cc(CO)n(-c2c(Cl)cccc2Cl)c2c(Cl)cnc(NCCOCCOCCOCCO)c12 [Example 13, 8-chloro-1-(2,6-dichlorophenyl)-5-((2-(2-(2-(2-hydroxyethoxy)ethoxy)ethoxy)ethyl)amino)-2-(hydroxymethyl)-1,6-naphthyridin-4(1H)-one] | 71 |
| Cc1cc(=O)c2c(OCC3COC(C)(C)O3)ncc(Cl)c2n1-c1c(Cl)cc(C#CCN(C)C)cc1Cl (centres unmarked) [Example 93, 8-Chloro-1-(2,6-dichloro-4-(3-(dimethylamino)prop-1-yn-1-yl)phenyl)-5-((2,2-dimethyl-1,3-dioxolan-4-yl)methoxy)-2-methyl-1,6-naphthyridin-4(1H)-one] | 46 |
| Cc1cc(=O)c2c(NCCOCCOCCOCCO)ncc(Cl)c2n1-c1c(Cl)cccc1Cl [Example 37, 8-chloro-1-(2,6-dichlorophenyl)-5-((2-(2-(2-(2-hydroxyethoxy)ethoxy)ethoxy)ethyl)amino)-2-methyl-1,6-naphthyridin-4(1H)-one] | 6 |
| Cc1cc(=O)c2c(NCCc3c[nH]cn3)cncc2n1-c1c(Cl)cc(C#N)cc1Cl [Example 56, 4-(5-((2-(1H-imidazol-4-yl)ethyl)amino)-2-methyl-4-oxo-1,7-naphthyridin-1(4H)-yl)-3,5-dichlorobenzontrile] | 197 |
| Cc1cc(=O)c2c(OCCOCCOCCOCCO)ncc(Cl)c2n1-c1c(Cl)cc(F)cc1C#N [Example 23, 3-chloro-2-(8-chloro-5-(2-(2-(2-(2-hydroxyethoxy)ethoxy)ethoxy)ethoxy)-2-methyl-4-oxo-1,6-naphthyridin-1(4H)-yl)-5-fluorobenzonitrile] | 344 |
| CCc1cc2c(c(OCC(O)CO)n1)c(=O)cc(C)n2-c1c(Cl)cccc1CC (centres unmarked) [Example 67, 1-(2-Chloro-6-ethylphenyl)-5-(2,3-dihydroxypropoxy)-7-ethyl-2-methyl-1,6-naphthyridin-4(1H)-one] | 168 |
| Cc1cc(=O)c2c(OCC(O)C(O)CO)ncc(Cl)c2n1-c1c(Cl)cccc1Cl (centres unmarked) [Example 26, 8-chloro-1-(2,6-dichlorophenyl)-2-methyl-5-(2,3,4-trihydroxybutoxy)-1,6-naphthyridin-4(1H)-one] | 31 |
| Cc1cc(=O)c2c(OCCO)ncc(Cl)c2n1-c1c(Cl)cc(C#CCN2CCOCC2)cc1Cl [Example 91, 8-Chloro-1-(2,6-dichloro-4-(3-morpholinoprop-1-yn-1-yl)phenyl)-5-(2-hydroxyethoxy)-2-methyl-1,6-naphthyridin-4(1H)-one] | 40 |
| CNc1cc2c(c(OCC(O)CO)n1)c(=O)cc(C)n2-c1c(Cl)cccc1Cl (centres unmarked) [Example 65, 1-(2,6-Dichlorophenyl)-5-(2,3-dihydroxpropoxy)-2-methyl-7-(methylamino)-1,6-naphthyridin-4(1H)-one] | 390 |

Next, values leading:

| IC50 [nM] | Structure (SMILES) |
| --- | --- |
| 970 | O=c1cc(CO)n(-c2c(Cl)cccc2Cl)c2c(Cl)cnc(O)c12 [Example 64, 8-Chloro-1-(2,6-dichlorophenyl)-5-hydroxy-2-(hydroxymethyl)-1,6-naphthyridin-4(1H)-one] |
| 41 | CS(=O)(=O)CCNc1ncc(Cl)c2c1c(=O)cc(CO)n2-c1c(Cl)cccc1Cl [Example 51, 8-chloro-1-(2,6-dichlorophenyl)-2-(hydroxymethyl)-5-((2-(methylsulfonyl)ethyl)amino)-1,6-naphthyridin-4(1H)-one] |
| 60 | Cc1cc(=O)c2c(NCC(O)C(=O)NCCO)ncc(Cl)c2n1-c1c(Cl)cccc1Cl (centres unmarked) [Example 17, 3-((8-chloro-1-(2,6-dichlorophenyl)-2-methyl-4-oxo-1,4-dihydro-1,6-naphthyridin-5-yl)amino)-2-hydroxy-N-(2-hydroxyethyl)propanamide] |
| 35 | Cc1cc(=O)c2c(NCCc3c[nH]cn3)ncc(Cl)c2n1-c1c(Cl)cccc1Cl [Example 35, 5-((2-(1H-imidazol-4-yl)ethyl)amino)-8-chloro-1-(2,6-dichlorophenyl)-2-methyl-1,6-naphthyridin-4(1H)-one] |
| 100 | Cc1cc(=O)c2c(N3C[C@@H](O)[C@@H](O)C3)ncc(Cl)c2n1-c1c(Cl)cccc1Cl [Example 33, 8-chloro-1-(2,6-dichlorophenyl)-5-((3R,4S)-3,4-dihydroxypyrrolidin-1-yl)-2-methyl-1,6-naphthyridin-4(1H)-one] |
| 69 | O=c1cc(CO)n(-c2c(Cl)cccc2Cl)c2c(Cl)cnc(CCCO)c12 [Example 74, 8-Chloro-1-(2,6-dichlorophenyl)-2-(hydroxymethyl)-5-(3-hydroxypropyl)-1,6-naphthyridin-4(1H)-one] |
| 19 | Cc1cc(=O)c2c(C(O)CO)ncc(Cl)c2n1-c1c(Cl)cccc1Cl (centres unmarked) [Example 85, 8-Chloro-1-(2,6-dichlorophenyl)-5-(1,2-dihydroxyethyl)-2-methyl-1,6-naphthyridin-4(1H)-one] |
| 24 | Cc1cc(=O)c2c(C(C)(O)C(=O)CO)ncc(Cl)c2n1-c1c(Cl)cccc1Cl (centres unmarked) [Example 89, 8-Chloro-1-(2,6-dichlorophenyl)-5-(2,4-dihydroxy-3-oxobutan-2-yl)-2-methyl-1,6-naphthyridin-4(1H)-one] |
| 15 | Cc1cc(=O)c2c(NC[C@H](O)CO)ncc(Cl)c2n1-c1c(Cl)cccc1Cl [Example 39, (S)-8-chloro-1-(2,6-dichlorophenyl)-5-((2,3-dihydroxypropyl)amino)-2-methyl-1,6-naphthyridin-4(1H)-one] |
| 23 | Cc1cc(=O)c2c(CC(O)CO)ncc(Cl)c2n1-c1c(Cl)cccc1Cl (centres unmarked) [Example 81, 8-Chloro-1-(2,6-dichlorophenyl)-5-(2,3-dihydroxpropyl)-2-methyl-1,6-naphthyridin-4(1H)-one] |
| 1230 | O=c1cc(CO)n(-c2c(Cl)cccc2Cl)c2c(Cl)cnc(COC(CO)CO)c12 [Example 88, 8-Chloro-1-(2,6-dichlorophenyl)-5-(((1,3-dihydroxypropan-2-yl)oxy)methyl)-2-(hydroxymethyl)-1,6-naphthyridin-4(1H)-one] |
| 26 | Cc1cc(=O)c2c(N[C@@H]3COC[C@H]3O)ncc(Cl)c2n1-c1c(Cl)cc(C#N)cc1Cl [Example 43, 3,5-dichloro-4-(8-chloro-5-(((3R,4S)-4-hydroxytetrahydrofuran-3-yl)amino)-2-methyl-4-oxo-1,6-naphthyridin-1(4H)-yl)benzonitrile] |
| 149 | Cc1cc(=O)c2c(Nc3nnnn3C)ncc(Cl)c2n1-c1c(Cl)cccc1Cl [Example 45, 8-chloro-1-(2,6-dichlorophenyl)-2-methyl-5-((1-methyl-1H-tetrazol-5-yl)amino)-1,6-naphthyridin-4(1H)-one] |
